# Key:
# RTN3 Reticulon-3 = target: T1, RTN3 Reticulon-3 (Homo sapiens, UniProt O95197); experiment: competitive isoTOP-ABPP; type: binding; conditions: 50 uM, in vitro; for isoTOP-ABPP reactivity ratio at lysine O95197_K1022: 231 sol; for isoTOP-ABPP ratio (R) at liganded lysine O95197_K1022: sol, 231
# T1 construct: isoTOP-ABPP experiments performed in cell lysates (in vitro); endogenous in cells; host or cells: MDA-MB-231 soluble lysate
# T1 sequence (O95197 1-1032): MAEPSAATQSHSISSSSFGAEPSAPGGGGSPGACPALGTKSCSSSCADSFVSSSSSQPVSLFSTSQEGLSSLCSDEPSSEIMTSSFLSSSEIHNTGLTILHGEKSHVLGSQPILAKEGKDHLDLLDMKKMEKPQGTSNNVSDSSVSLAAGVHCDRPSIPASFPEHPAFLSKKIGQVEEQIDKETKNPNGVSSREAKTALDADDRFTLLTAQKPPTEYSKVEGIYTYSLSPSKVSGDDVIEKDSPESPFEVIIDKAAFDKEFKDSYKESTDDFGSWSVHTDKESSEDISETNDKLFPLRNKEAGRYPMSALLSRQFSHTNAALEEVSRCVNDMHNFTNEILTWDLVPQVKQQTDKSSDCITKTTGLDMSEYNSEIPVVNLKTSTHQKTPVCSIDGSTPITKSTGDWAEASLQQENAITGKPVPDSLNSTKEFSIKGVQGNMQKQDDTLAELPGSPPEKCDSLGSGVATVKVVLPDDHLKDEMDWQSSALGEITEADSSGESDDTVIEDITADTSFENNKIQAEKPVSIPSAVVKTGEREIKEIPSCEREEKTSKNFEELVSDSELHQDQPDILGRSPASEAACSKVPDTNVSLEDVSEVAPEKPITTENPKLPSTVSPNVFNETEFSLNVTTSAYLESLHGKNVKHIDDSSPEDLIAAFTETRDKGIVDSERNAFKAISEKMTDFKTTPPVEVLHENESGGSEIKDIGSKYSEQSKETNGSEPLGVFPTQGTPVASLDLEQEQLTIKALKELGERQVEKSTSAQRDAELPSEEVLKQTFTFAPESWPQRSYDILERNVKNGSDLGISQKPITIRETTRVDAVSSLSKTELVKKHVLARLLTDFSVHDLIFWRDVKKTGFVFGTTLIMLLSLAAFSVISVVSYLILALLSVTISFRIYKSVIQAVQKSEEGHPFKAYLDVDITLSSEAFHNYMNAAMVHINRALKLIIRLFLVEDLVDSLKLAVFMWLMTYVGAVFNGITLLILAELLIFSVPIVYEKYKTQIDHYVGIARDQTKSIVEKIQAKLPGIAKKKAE
# Procedure, shortened: (§1)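 Lysine engagement is reported as R, the MS1 peak-area ratio of heavy-tagged DMSO to light-tagged compound samples. Final fragment concentrations were 50 μM for activated esters and 100 μM for guanidinylating agents; STP-alkyne probe 0.1 mM, 1 h.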
# [1] = target: T2, EEF1A1 Elongation factor 1-alpha 1 (Homo sapiens, UniProt P68104); experiment: competitive isoTOP-ABPP; type: binding; conditions: for isoTOP-ABPP reactivity ratio at lysine P68104_K84 / isoTOP-ABPP ratio (R) at liganded lysine P68104_K84: 50 uM, in vitro; for isoTOP-ABPP reactivity ratio at lysine P68104_K84: 231 sol; for isoTOP-ABPP ratio (R) at liganded lysine P68104_K84: sol, 231; for isoTOP-ABPP ratio, lysine P68104_K84: 100 uM_231_sol_in vitro
# T2 construct: isoTOP-ABPP experiments performed in cell lysates (in vitro); endogenous in cells; host or cells: soluble proteome of human cancer cell lines (MDA-MB-231, Ramos, Jurkat)
# T2 sequence (P68104 1-462): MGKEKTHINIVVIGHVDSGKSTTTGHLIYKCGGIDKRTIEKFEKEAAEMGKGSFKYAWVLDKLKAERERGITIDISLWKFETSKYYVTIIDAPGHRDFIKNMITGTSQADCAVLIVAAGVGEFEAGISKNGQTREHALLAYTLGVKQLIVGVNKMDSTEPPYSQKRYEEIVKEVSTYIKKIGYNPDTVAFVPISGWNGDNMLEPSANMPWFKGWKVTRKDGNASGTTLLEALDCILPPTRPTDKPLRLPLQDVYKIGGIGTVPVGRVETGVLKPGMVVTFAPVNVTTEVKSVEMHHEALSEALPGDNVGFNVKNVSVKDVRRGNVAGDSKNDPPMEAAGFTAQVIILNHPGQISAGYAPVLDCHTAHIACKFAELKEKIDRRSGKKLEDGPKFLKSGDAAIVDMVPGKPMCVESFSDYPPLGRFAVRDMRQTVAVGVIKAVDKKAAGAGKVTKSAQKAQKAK
# Procedure, shortened: as §1
smiles,measurement,setting,value
"CCn1cc(C(=O)Oc2c(F)c(F)c(F)c(F)c2F)c(=O)c2ccc(C)nc21 [fragment 28, Pentafluorophenyl 1-ethyl-7-methyl-4-oxo-1,4-dihydro-1,8-naphthyridine-3-carboxylate]",isoTOP-ABPP reactivity ratio at lysine O95197_K1022,RTN3 Reticulon-3,1.2
"O=C(CCc1cn(-c2ccccc2)nc1-c1ccccc1)Oc1ccc([N+](=O)[O-])cc1[N+](=O)[O-] [fragment 29, 2,4-Dinitrophenyl 3-(1,3-diphenyl-1H-pyrazol-4-yl)propanoate]",isoTOP-ABPP reactivity ratio at lysine P68104_K84,[1],20.0
same,isoTOP-ABPP reactivity ratio at lysine O95197_K1022,RTN3 Reticulon-3,6.2
"O=C(Oc1ccc([N+](=O)[O-])cc1[N+](=O)[O-])C(c1ccccc1)c1ccccc1 [fragment 30, 2,4-Dinitrophenyl 2,2-diphenylacetate]",isoTOP-ABPP reactivity ratio at lysine P68104_K84,[1],0.5
same,isoTOP-ABPP reactivity ratio at lysine O95197_K1022,RTN3 Reticulon-3,20.0
"O=C(Oc1ccc([N+](=O)[O-])cc1[N+](=O)[O-])c1cc(C(F)(F)F)cc(C(F)(F)F)c1 [fragment 31, 2,4-Dinitrophenyl 3,5-bis(trifluoromethyl)benzoate]",isoTOP-ABPP reactivity ratio at lysine P68104_K84,[1],0.4
"Cn1cc(CC(=O)Oc2ccc([N+](=O)[O-])cc2[N+](=O)[O-])c2ccccc21 [fragment 32, 2,4-Dinitrophenyl 2-(1-methyl-1H-indol-3-yl)acetate]",isoTOP-ABPP reactivity ratio at lysine P68104_K84,[1],0.4
"COc1cc(CCC(=O)Oc2ccc([N+](=O)[O-])cc2[N+](=O)[O-])cc(OC)c1OC [fragment 33, 2,4-Dinitrophenyl 3-(3,4,5-trimethoxyphenyl)propanoate]",isoTOP-ABPP reactivity ratio at lysine O95197_K1022,RTN3 Reticulon-3,1.4
"O=C(CCc1coc2cc(F)ccc2c1=O)Oc1ccc([N+](=O)[O-])cc1[N+](=O)[O-] [fragment 36, 2,4-Dinitrophenyl 3-(7-fluoro-4-oxo-4H-chromen-3-yl)propanoate]",isoTOP-ABPP ratio (R) at liganded lysine P68104_K84,[1],0.7
"O=C(Oc1ccc([N+](=O)[O-])cc1[N+](=O)[O-])c1ccc(-c2ccccc2)cc1 [fragment 37, 2,4-Dinitrophenyl [1,1′-biphenyl]-4-carboxylate]",isoTOP-ABPP ratio (R) at liganded lysine P68104_K84,[1],20.0
"O=C(Oc1ccc([N+](=O)[O-])cc1[N+](=O)[O-])c1ccccc1Nc1cccc(C(F)(F)F)c1 [fragment 40, 2,4-Dinitrophenyl 2-((3-(trifluoromethyl)phenyl)amino)benzoate]",isoTOP-ABPP ratio (R) at liganded lysine O95197_K1022,RTN3 Reticulon-3,1.7
"CC(C)(C)OC(=O)NCCCC(=O)Oc1ccc([N+](=O)[O-])cc1[N+](=O)[O-] [fragment 41, 2,4-Dinitrophenyl 4-((tert-butoxycarbonyl)amino)butanoate]",isoTOP-ABPP ratio (R) at liganded lysine O95197_K1022,RTN3 Reticulon-3,1.6
"O=C(Oc1ccc([N+](=O)[O-])cc1[N+](=O)[O-])C(c1ccccc1)(c1ccccc1)c1ccccc1 [fragment 42, 2,4-Dinitrophenyl 2,2,2-triphenylacetate]",isoTOP-ABPP ratio (R) at liganded lysine O95197_K1022,RTN3 Reticulon-3,1.1
"CC(=O)Oc1ccc([N+](=O)[O-])cc1[N+](=O)[O-] [fragment 43, 2,4-Dinitrophenyl acetate]",isoTOP-ABPP ratio (R) at liganded lysine P68104_K84,[1],0.7
"COC(=O)NC(=NC(=O)OCC1c2ccccc2-c2ccccc21)n1cccn1 [fragment 49, N-Methoxycarbonyl-N′-9-fluorenylmethoxycarbonyl-pyrazole-1-carboxamidine]","isoTOP-ABPP ratio, lysine P68104_K84",[1],1.2
"CC(C)(C)OC(=O)N=C(NC(=O)OC(C)(C)C)n1cccn1 [fragment 50, reference compound]","isoTOP-ABPP ratio, lysine P68104_K84",[1],1.3

# From patent US20210255193A1, “LYSINE REACTIVE PROBES AND USES THEREOF” (The Scripps Research Institute, priority 2017, published 2021)
